We go through 7 molecules from patent publication US7077859B2, “Apparatus and methods for variably controlled substance delivery from implanted prostheses” (Avantec Vascular Corporation, priority 2000, dated 2006).

Series [1] has as its system porcine smooth muscle cell cultures. The experiment in a line: Thymidine incorporation (proliferation) in porcine smooth muscle cell cultures. Type of series: cell-based. The settings on record: for IC50: Sus scrofa, amount of incorporated thymidine, concentrations 0.003-156 micromolar, FIGS. 20A-B, read-out: IC50 (concentration at which 50% of the cells are prevented from proliferating). On the procedure:
In order to assess the effect of therapeutic capable agents of the present invention on cell cultures, samples of 5 sets of therapeutic capable agents, as listed below, in varying concentrations were prepared and added to different groups of porcine smooth muscle cell cultures according to standard procedures. Set A, B, C, D, and E corresponded to therapeutic capable agent sets: Mycophenolic acid & Dexamethasone; Mycophenolic acid & Triptolide; Wortmannin and Methotrexate; Triptolide; Mycophenolate Mofetil; respectively. The amount of incorporated thymidine for the different samples of varying concentrations (0.003, 0.031, 0.31, 1.6, and 3.1 micromolar) was measured.
In another group of therapeutic capable agents, the amount of incorporated thymidine for samples of varying concentrations (0.003, 0.031, 0.31, 1.6, 3.1, 31, and 156 micromolar) was measured.
(In general: Dividing cells build labelled thymidine or BrdU into new DNA.)

The nature of series [2]: Half life of mycophenolic acid bound to BSA (MPA-BSA), assayed by liquid chromatography. It is filed as in vitro ADME. From the text: The MPA-BSA has an increases half time (as measured by assaying methods such as liquid chromotography) as compared to mycophenolic acid alone and as shown in the table below: […]

On to `C[C@@H]1C[C@H]2[C@@H]3CCC4=CC(=O)C=C[C@]4(C)[C@@]3(F)[C@@H](O)C[C@]2(C)[C@@]1(O)C(=O)CO` [Dexamethasone], for which, in the series with cell cultures, the Cell death entry is “did not lead to significant cell death”.

For `CN(Cc1cnc2nc(N)nc(N)c2n1)c1ccc(C(=O)N[C@@H](CCC(=O)O)C(=O)O)cc1` [Methotrexate], the Cell death entry in the series on cell cultures was “did not lead to significant cell death”.

In the case of `C[C@H]1C[C@@H]2[C@H]([C@@H](O)C[C@@]3(C)[C@H]2CC[C@]3(O)C(=O)CO)[C@@]2(C)C=CC(=O)C=C12` [Methylprednisolone, methylprednisolone], the IC50 in series [1] worked out at 1000 nM.

Regarding `COc1c(C)c2c(c(O)c1C/C=C(\C)CCC(=O)OCCN1CCOCC1)C(=O)OC2` [Mycophenolate Mofetil], the “Effectiveness on cell proliferation (incorporated thymidine)” value in series [1] (porcine smooth muscle cell cultures, 0.003-3.1 micromolar, FIG. 19E) is recorded as “may not be as effective in the absence of a bio-condition”.

For the molecule `COc1c(C)c2c(c(O)c1C/C=C(\C)CCC(=O)O)C(=O)OC2` [Mycophenolic acid, mycophenolic acid], the IC50 in series [1] worked out at 1000 nM. Besides, in the series on cell cultures, the Cell death result is recorded as “did not lead to significant cell death”.

In the case of `CC(C)[C@]12O[C@H]1[C@@H]1O[C@]13[C@]1(O[C@H]1C[C@H]1C4=C(CC[C@@]13C)C(=O)OC4)[C@@H]2O` [Triptolide], the Cell death entry with cell cultures is “did not lead to significant cell death”.

Take “MPA-BSA: mycophenolic acid (MPA) bound to Bovine Serum Albumin disposed adjacent the rate-controlling element, forming a complex”: the “Half Life (T)” value in series [2] (Blood or Tissue BSA Concentration 1%) is 1.27 h; in series [2] (Blood or Tissue BSA Concentration 2%), 2.02 h; in series [2] (Blood or Tissue BSA Concentration 4%), 6.07 h; in series [2] (Blood or Tissue BSA Concentration 6%), 32.07 h. Moreover, in series [2] (metabolism to glucuronide derivative), the “Stability of the complex compared to mycophenolic acid alone” value is given as “more stable than mycophenolic acid alone”.
